Read-outs that look alike come from different tables or passages of the source.
How the values were obtained:
TAOK1 = target: T1, TAOK1 (Homo sapiens, UniProt Q7L7X3); test: Kinase Hotspot radiolabel assay; type: biochemical; details: read-out: % Residual Activity
T1 construct: purchased Reaction Biology Corporation (Kinase HotSpot)

Pharmacokinetics in mice = type: in vivo, BALB/c hairy mice
Description: Pharmacokinetics. The pharmacokinetics of CDDD11-8 was determined in mice after single oral (PO) and intravenous (IV) doses. CDDD11-8 was administered at a dose of 10 or 100 mg/kg PO or 2 mg/kg IV to BALB/c hairy mice (n = 10 per route of administration; both male and female). The IV dose consisted of CDDD11-8 dissolved in 10/90 N-methyl-2-pyrrolidone (NMP)/acetate buffer (pH 4.5), while the PO doses of CDDD11-8 were dissolved in acetate buffer at pH 4.74. At nominal times, up to three blood samples were collected from individual mice at non-consecutive times from the right cheek, left cheek, and heart of an individual mouse. The concentrations in these samples were measured by validated LC-MS/MS methods (limit of quantification = 5 ng/mL). Pharmacokinetic parameters were estimated after fitting compartmental models to the concentration–time data (Phoenix, Certara, NJ, USA). Specifically, a one-compartmental kinetic model with first-order input was used after an oral dose, and a two-compartmental model was fitted to the IV data. Acceptability of models was evaluated from values for Akaike Information Criterion (AIC), Schwarz’s Bayesian Criterion (SIB), and % Coefficient of Variance (CV) for parameters, where lower values were indicative of a better fit. Other considerations were variances in the concentrations of quality control samples and visual inspection of model fit. Oral bioavailability (F) was calculated from values of AUC after PO and IV administration after correcting for the differences in doses.

T1 sequence (Q7L7X3 whole entry): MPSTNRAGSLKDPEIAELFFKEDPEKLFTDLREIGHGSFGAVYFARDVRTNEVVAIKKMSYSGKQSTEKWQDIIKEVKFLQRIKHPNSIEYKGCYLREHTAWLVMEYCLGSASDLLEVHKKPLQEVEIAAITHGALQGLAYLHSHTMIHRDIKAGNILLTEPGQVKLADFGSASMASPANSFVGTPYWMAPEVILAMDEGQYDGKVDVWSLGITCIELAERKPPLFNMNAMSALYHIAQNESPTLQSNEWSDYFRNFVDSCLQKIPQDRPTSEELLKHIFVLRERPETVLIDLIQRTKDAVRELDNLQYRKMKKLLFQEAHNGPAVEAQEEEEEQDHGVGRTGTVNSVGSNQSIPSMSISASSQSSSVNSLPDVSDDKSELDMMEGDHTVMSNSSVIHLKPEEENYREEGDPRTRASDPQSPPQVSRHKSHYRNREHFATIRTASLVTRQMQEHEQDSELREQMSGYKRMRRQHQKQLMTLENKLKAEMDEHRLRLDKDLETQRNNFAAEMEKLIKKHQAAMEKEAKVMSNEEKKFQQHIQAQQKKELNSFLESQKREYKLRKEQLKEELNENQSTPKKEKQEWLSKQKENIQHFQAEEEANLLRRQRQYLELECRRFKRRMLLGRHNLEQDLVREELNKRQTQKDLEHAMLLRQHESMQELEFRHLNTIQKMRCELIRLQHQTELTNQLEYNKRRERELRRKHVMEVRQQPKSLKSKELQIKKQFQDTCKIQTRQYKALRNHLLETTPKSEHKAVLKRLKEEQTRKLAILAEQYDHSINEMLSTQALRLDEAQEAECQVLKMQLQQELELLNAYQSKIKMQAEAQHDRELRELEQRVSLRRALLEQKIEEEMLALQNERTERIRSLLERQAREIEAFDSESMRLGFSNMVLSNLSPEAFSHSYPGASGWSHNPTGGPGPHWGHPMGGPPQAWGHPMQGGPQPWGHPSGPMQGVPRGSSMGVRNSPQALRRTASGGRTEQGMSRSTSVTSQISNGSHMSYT

SMILES: Cc1cnc(N[C@H]2CC[C@H](N)CC2)nc1-c1cnc2ccc(-c3ccccc3)cn12 [CDDD11-8]
- remaining activity at 1 µM (TAOK1): 45.5%
- oral bioavailability predicted from hepatic extraction (Pharmacokinetics in mice): about 43%
- plasma exposure after 100 mg/kg PO relative to 10 mg/kg (Pharmacokinetics in mice): 19 times
- plasma exposure (Pharmacokinetics in mice; PO 10 mg/kg): 3.4 µM·h
- plasma exposure (Pharmacokinetics in mice; PO 100 mg/kg): 64 µM·h
- extraction by the liver (Pharmacokinetics in mice; blood clearance vs hepatic blood flow 5.4 L/h.kg): ~57%
- clearance (Pharmacokinetics in mice; both sexes, BALB/c hairy, mouse, IV 2 mg/kg, plasma, ± standard error of the estimate, read-out: CL (converted)): 36.8 mL/min/kg
- concentration at 0.03 h (Pharmacokinetics in mice; both sexes, BALB/c hairy, mouse, plasma, IV 2 mg/kg, 0.03 h, read-out: Plasma Conc.): 2290 ng/mL
- concentration at 0.07 h (Pharmacokinetics in mice; both sexes, BALB/c hairy, mouse, plasma, IV 2 mg/kg, 0.07 h, read-out: Plasma Conc.): 2150 ng/mL
- concentration at 0.1 h (Pharmacokinetics in mice; both sexes, BALB/c hairy, mouse, plasma, IV 2 mg/kg, 0.10 h, read-out: Plasma Conc.): 1310 ng/mL
- concentration at 0.17 h (Pharmacokinetics in mice; both sexes, BALB/c hairy, mouse, plasma, IV 2 mg/kg, 0.17 h, read-out: Plasma Conc.): 1070 ng/mL
- concentration at 0.2 h (Pharmacokinetics in mice; both sexes, BALB/c hairy, mouse, plasma, IV 2 mg/kg, 0.20 h, read-out: Plasma Conc.): 1020 ng/mL
- concentration at 0.3 h (Pharmacokinetics in mice; both sexes, BALB/c hairy, mouse, plasma, IV 2 mg/kg, 0.30 h, read-out: Plasma Conc.): 781 ng/mL
- concentration at 0.53 h (Pharmacokinetics in mice; both sexes, BALB/c hairy, mouse, plasma, IV 2 mg/kg, 0.53 h, read-out: Plasma Conc.): 367 ng/mL
- concentration at 0.68 h (Pharmacokinetics in mice; both sexes, BALB/c hairy, mouse, plasma, IV 2 mg/kg, 0.68 h, read-out: Plasma Conc.): 271 ng/mL
- concentration at 1.4 h (Pharmacokinetics in mice; both sexes, BALB/c hairy, mouse, plasma, IV 2 mg/kg, 1.4 h, read-out: Plasma Conc.): 132 ng/mL
- concentration at 2.1 h (Pharmacokinetics in mice; both sexes, BALB/c hairy, mouse, plasma, IV 2 mg/kg, 2.1 h, read-out: Plasma Conc.): 50 ng/mL
- concentration at 3.4 h (Pharmacokinetics in mice; both sexes, BALB/c hairy, mouse, plasma, IV 2 mg/kg, 3.4 h, read-out: Plasma Conc.): 20 ng/mL
- concentration at 4.1 h (Pharmacokinetics in mice; both sexes, BALB/c hairy, mouse, plasma, IV 2 mg/kg, 4.1 h, read-out: Plasma Conc.): 11 ng/mL
- concentration at 5.4 h (Pharmacokinetics in mice; both sexes, BALB/c hairy, mouse, plasma, IV 2 mg/kg, read-out: Plasma Conc.): 3 ng/mL
- concentration at 6 h (Pharmacokinetics in mice; both sexes, BALB/c hairy, mouse, plasma, IV 2 mg/kg, 6 h, read-out: Plasma Conc.): 3.2 ng/mL
- concentration at 7 h (Pharmacokinetics in mice; both sexes, BALB/c hairy, mouse, plasma, IV 2 mg/kg, 7 h, read-out: Plasma Conc.): 2.4 ng/mL
- concentration at 7.7 h (Pharmacokinetics in mice; both sexes, BALB/c hairy, mouse, plasma, IV 2 mg/kg, 7.7 h, read-out: Plasma Conc.): 2.8 ng/mL
- concentration at 8 h (Pharmacokinetics in mice; both sexes, BALB/c hairy, mouse, plasma, IV 2 mg/kg, 8 h, read-out: Plasma Conc.): 2.8 ng/mL
- concentration at 8.8 h (Pharmacokinetics in mice; both sexes, BALB/c hairy, mouse, plasma, IV 2 mg/kg, 8.8 h, read-out: Plasma Conc.): 2 ng/mL
- concentration at 9.5 h (Pharmacokinetics in mice; both sexes, BALB/c hairy, mouse, plasma, IV 2 mg/kg, 9.5 h, read-out: Plasma Conc.): 1.7 ng/mL
- AUC (Pharmacokinetics in mice; both sexes, BALB/c hairy, mouse, plasma, IV 2 mg/kg, ± standard error of the estimate): 906 ± 90 ng·h/mL
- Vd (Pharmacokinetics in mice; both sexes, BALB/c hairy, mouse, plasma, IV 2 mg/kg, ± standard error of the estimate, read-out: Vss): 1.71 ± 0.246 L/kg
- half-life (Pharmacokinetics in mice; both sexes, BALB/c hairy, mouse, plasma, IV 2 mg/kg, ± standard error of the estimate, read-out: t½ (converted)): 1.8 ± 0.3 h
- concentration at 0.13 h (Pharmacokinetics in mice; both sexes, BALB/c hairy, mouse, plasma, PO 10 mg/kg, 0.13 h, read-out: Plasma Conc.): 140 ng/mL
- concentration at 0.28 h (Pharmacokinetics in mice; both sexes, BALB/c hairy, mouse, plasma, PO 10 mg/kg, 0.28 h, read-out: Plasma Conc.): 300 ng/mL
- concentration at 0.4 h (Pharmacokinetics in mice; both sexes, BALB/c hairy, mouse, plasma, PO 10 mg/kg, 0.40 h, read-out: Plasma Conc.): 139 ng/mL
- concentration at 0.65 h (Pharmacokinetics in mice; both sexes, BALB/c hairy, mouse, plasma, PO 10 mg/kg, 0.65 h, read-out: Plasma Conc.): 389 ng/mL
- concentration at 1.2 h (Pharmacokinetics in mice; both sexes, BALB/c hairy, mouse, plasma, PO 10 mg/kg, 1.2 h, read-out: Plasma Conc.): 740 ng/mL
- concentration at 1.9 h (Pharmacokinetics in mice; both sexes, BALB/c hairy, mouse, plasma, PO 10 mg/kg, 1.9 h, read-out: Plasma Conc.): 356 ng/mL
- concentration at 2.6 h (Pharmacokinetics in mice; both sexes, BALB/c hairy, mouse, plasma, PO 10 mg/kg, 2.6 h, read-out: Plasma Conc.): 450 ng/mL
- concentration at 3.3 h (Pharmacokinetics in mice; both sexes, BALB/c hairy, mouse, plasma, PO 10 mg/kg, 3.3 h, read-out: Plasma Conc.): 95 ng/mL
- concentration at 4 h (Pharmacokinetics in mice; both sexes, BALB/c hairy, mouse, plasma, PO 10 mg/kg, 4.0 h, read-out: Plasma Conc.): 169 ng/mL
- concentration at 4.7 h (Pharmacokinetics in mice; both sexes, BALB/c hairy, mouse, plasma, PO 10 mg/kg, 4.7 h, read-out: Plasma Conc.): 34 ng/mL
- concentration at 5.4 h (Pharmacokinetics in mice; both sexes, BALB/c hairy, mouse, plasma, PO 10 mg/kg, read-out: Plasma Conc.): 17 ng/mL
- concentration at 6.2 h (Pharmacokinetics in mice; both sexes, BALB/c hairy, mouse, plasma, PO 10 mg/kg, 6.2 h, read-out: Plasma Conc.): 20 ng/mL
- concentration at 6.8 h (Pharmacokinetics in mice; both sexes, BALB/c hairy, mouse, plasma, PO 10 mg/kg, 6.8 h, read-out: Plasma Conc.): 3.4 ng/mL
- concentration at 7.8 h (Pharmacokinetics in mice; both sexes, BALB/c hairy, mouse, plasma, PO 10 mg/kg, 7.8 h, read-out: Plasma Conc.): 1.6 ng/mL
- concentration at 8.5 h (Pharmacokinetics in mice; both sexes, BALB/c hairy, mouse, plasma, PO 10 mg/kg, 8.5 h, read-out: Plasma Conc.): 1.8 ng/mL
- concentration at 9.7 h (Pharmacokinetics in mice; both sexes, BALB/c hairy, mouse, plasma, PO 10 mg/kg, 9.7 h, read-out: Plasma Conc.): 1 ng/mL
- concentration at 15.8 h (Pharmacokinetics in mice; both sexes, BALB/c hairy, mouse, plasma, PO 10 mg/kg, 15.8 h, read-out: Plasma Conc.): 0 ng/mL
- concentration at 21 h (Pharmacokinetics in mice; both sexes, BALB/c hairy, mouse, plasma, PO 10 mg/kg, 21.0 h, read-out: Plasma Conc.): 0 ng/mL
- concentration at 24.6 h (Pharmacokinetics in mice; both sexes, BALB/c hairy, mouse, plasma, PO 10 mg/kg, 24.6 h, read-out: Plasma Conc.): 0 ng/mL

Source: publication PMC8909834, “An Orally Bioavailable and Highly Efficacious Inhibitor of CDK9/FLT3 for the Treatment of Acute Myeloid Leukemia” (Cancers, 2022)
